Measured values: ChEMBL document CHEMBL3797167, “Development of a peptide-based inducer of nuclear receptors degradation” (Bioorg Med Chem Lett, 2016)
Active and inactive are the calls of the source. The rule behind the calls is not given here.

How the values were obtained:
[1] = target: T1, Estrogen receptor (Homo sapiens) (UniProt P03372); experiment: Induction of ERalpha degradation in human MCF7 cells at 3 to 10 uM after 6 hrs by Western blot analysis; format: cell-based
T1 sequence (whole entry): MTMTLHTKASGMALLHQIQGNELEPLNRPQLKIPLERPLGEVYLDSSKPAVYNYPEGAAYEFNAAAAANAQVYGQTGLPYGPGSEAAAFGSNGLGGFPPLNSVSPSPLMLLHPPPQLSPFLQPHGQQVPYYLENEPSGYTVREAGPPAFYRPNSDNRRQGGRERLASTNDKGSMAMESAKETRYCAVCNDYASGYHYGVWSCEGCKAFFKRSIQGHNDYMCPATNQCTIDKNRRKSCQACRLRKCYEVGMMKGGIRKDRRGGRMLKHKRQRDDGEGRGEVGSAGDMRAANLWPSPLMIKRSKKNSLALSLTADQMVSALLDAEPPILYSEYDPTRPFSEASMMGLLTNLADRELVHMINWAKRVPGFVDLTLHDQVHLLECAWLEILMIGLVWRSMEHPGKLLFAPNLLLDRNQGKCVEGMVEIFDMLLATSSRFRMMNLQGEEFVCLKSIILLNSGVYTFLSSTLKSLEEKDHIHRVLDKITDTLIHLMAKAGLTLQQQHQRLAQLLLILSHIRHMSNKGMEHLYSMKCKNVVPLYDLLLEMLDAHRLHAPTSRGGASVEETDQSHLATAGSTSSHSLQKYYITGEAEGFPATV

[2] = tested on: MCF7; experiment: Cytotoxicity against human MCF7 cells at 10 uM after 6 hrs; format: cell-based; conditions: mcf7, 6 h
[3] = target: T1, Estrogen receptor (Homo sapiens); experiment: Induction of ERalpha degradation in human MCF7 cells assessed as ERalpha/actin ratio level at 10 uM after 6 hrs by Western blot analysis (reference value: 100%); format: cell-based
[4] = target: T1, Estrogen receptor (Homo sapiens); experiment: Induction of ERalpha degradation in human MCF7 cells assessed as ERalpha/actin ratio level at 5 uM after 6 hrs by Western blot analysis (reference value: 100%); format: cell-based
[5] = target: T1, Estrogen receptor (Homo sapiens); experiment: Induction of ERalpha degradation in human MCF7 cells assessed as ERalpha/actin ratio level at 3 uM after 6 hrs by Western blot analysis (reference value: 100%); format: cell-based
[6] = target: T1, Estrogen receptor (Homo sapiens); experiment: Induction of ERalpha degradation in human MCF7 cells at 0.1 to 1 uM after 6 hrs by Western blot analysis; format: cell-based
[7] = target: Baculoviral IAP repeat-containing protein 2 (Homo sapiens) (UniProt Q13490); experiment: Induction of cIAP1 degradation in human MCF7 cells at 1 uM after 6 hrs by Western blot analysis; format: cell-based
Baculoviral IAP repeat-containing protein 2 (Homo sapiens), sequence (Q13490 whole entry): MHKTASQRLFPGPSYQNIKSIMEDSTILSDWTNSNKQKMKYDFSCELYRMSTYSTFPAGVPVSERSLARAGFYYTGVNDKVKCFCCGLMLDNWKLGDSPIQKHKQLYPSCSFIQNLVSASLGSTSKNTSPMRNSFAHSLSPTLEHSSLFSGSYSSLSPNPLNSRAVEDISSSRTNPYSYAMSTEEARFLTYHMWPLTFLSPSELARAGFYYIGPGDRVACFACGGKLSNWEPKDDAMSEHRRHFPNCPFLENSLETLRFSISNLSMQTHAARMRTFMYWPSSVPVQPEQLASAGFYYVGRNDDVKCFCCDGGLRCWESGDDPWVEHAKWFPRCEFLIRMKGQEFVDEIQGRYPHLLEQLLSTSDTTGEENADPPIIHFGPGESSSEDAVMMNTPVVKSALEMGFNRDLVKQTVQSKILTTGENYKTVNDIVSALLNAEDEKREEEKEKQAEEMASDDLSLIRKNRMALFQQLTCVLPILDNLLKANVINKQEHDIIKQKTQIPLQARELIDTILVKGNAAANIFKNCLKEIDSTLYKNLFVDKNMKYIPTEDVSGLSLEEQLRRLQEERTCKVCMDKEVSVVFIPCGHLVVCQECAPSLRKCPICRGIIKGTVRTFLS

[8] = target: T1, Estrogen receptor (Homo sapiens); experiment: Induction of ERalpha degradation in human MCF7 cells assessed as ERalpha/actin ratio level at 0.3 uM after 6 hrs by Western blot analysis (reference value: 100%); format: cell-based
[9] = target: T1, Estrogen receptor (Homo sapiens); experiment: Induction of ERalpha degradation in human MCF7 cells assessed as ERalpha/actin ratio level at 1 uM after 6 hrs by Western blot analysis (reference value: 100%); format: cell-based
[10] = target: T1, Estrogen receptor (Homo sapiens); experiment: Induction of ERalpha degradation in human MCF7 cells assessed as ERalpha/actin ratio level at 0.1 uM after 6 hrs by Western blot analysis (reference value: 100%); format: cell-based
[11] = target: T1, Estrogen receptor (Homo sapiens); experiment: Induction of ERalpha degradation in human MCF7 cells after 6 hrs by Western blot analysis; format: cell-based
[12] = target: Baculoviral IAP repeat-containing protein 2 (Homo sapiens) (UniProt Q13490); experiment: Induction of cIAP1 degradation in human MCF7 cells after 6 hrs by Western blot analysis; format: cell-based
[13] = tested on: MCF7; experiment: Cytotoxicity against human MCF7 cells at >6 uM after 6 hrs; format: cell-based; conditions: mcf7, 6 h
[14] = target: T2, Androgen receptor (Homo sapiens) (UniProt P10275); experiment: Induction of AR degradation in human MCF7 cells at 3 to 6 uM after 6 hrs by Western blot analysis; format: cell-based
T2 sequence (whole entry): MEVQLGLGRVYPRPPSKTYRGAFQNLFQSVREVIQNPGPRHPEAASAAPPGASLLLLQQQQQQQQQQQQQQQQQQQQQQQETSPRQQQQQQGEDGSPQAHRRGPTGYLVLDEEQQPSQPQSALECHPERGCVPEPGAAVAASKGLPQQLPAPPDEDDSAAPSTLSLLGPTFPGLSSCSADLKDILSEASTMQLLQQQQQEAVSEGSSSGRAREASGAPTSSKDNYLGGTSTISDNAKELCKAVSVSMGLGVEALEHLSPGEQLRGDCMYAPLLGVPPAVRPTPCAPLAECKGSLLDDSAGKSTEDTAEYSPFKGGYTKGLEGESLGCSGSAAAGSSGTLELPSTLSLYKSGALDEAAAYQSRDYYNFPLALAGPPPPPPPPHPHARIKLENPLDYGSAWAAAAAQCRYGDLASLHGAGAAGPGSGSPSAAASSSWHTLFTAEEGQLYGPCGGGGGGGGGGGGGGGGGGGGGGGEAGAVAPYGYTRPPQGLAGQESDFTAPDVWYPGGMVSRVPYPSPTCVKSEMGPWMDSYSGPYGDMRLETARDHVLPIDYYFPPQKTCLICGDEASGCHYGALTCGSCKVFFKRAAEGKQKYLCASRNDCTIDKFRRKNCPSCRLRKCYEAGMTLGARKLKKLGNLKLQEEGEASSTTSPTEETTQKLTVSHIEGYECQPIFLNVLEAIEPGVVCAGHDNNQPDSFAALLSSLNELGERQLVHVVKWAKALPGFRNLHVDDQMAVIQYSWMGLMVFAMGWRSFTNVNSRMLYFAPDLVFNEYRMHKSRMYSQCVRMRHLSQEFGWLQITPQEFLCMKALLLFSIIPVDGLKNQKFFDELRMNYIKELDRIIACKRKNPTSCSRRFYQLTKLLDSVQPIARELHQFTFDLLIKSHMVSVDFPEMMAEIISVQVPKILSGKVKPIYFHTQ

[15] = target: T2, Androgen receptor (Homo sapiens); experiment: Induction of AR degradation in human MCF7 cells at 3 to 6 uM after 6 hrs by Western blot in presence of MG132; format: cell-based
[16] = target: T3, Aryl hydrocarbon receptor (Homo sapiens, UniProt P35869); experiment: Induction of AhR degradation in human MCF7 cells at 3 to 6 uM after 6 hrs by Western blot analysis; format: cell-based; conditions: mcf7, 6 h
T3 sequence (P35869 whole entry): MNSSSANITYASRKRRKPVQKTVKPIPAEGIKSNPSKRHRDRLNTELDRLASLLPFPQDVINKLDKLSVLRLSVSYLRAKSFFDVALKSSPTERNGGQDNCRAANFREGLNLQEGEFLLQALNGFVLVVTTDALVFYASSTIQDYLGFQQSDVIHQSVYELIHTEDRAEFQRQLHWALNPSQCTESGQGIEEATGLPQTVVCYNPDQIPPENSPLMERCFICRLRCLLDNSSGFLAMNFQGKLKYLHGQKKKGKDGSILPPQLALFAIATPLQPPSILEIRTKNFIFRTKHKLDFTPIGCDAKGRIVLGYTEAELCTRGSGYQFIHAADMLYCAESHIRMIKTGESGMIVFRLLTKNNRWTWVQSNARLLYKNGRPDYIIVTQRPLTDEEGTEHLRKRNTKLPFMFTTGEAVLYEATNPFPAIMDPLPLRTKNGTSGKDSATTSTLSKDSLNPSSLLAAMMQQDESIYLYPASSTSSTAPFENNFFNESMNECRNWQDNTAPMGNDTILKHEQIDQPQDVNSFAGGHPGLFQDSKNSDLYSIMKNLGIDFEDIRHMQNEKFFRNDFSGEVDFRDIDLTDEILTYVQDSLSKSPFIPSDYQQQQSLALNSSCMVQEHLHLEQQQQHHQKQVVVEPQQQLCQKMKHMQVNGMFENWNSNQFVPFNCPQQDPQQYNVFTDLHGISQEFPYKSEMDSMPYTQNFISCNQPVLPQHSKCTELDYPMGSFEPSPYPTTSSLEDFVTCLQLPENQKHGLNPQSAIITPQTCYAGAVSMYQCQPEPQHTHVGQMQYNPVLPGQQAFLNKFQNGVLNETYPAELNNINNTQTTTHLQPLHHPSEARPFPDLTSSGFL

[17] = target: T1, Estrogen receptor (Homo sapiens); experiment: Induction of ERalpha degradation in human MCF7 cells assessed as ERalpha/actin ratio level at 4.5 uM after 6 hrs by Western blot analysis (reference value: 100%); format: cell-based
[18] = target: T1, Estrogen receptor (Homo sapiens); experiment: Induction of ERalpha degradation in human MCF7 cells assessed as ERalpha/actin ratio level at 6 uM after 6 hrs by Western blot analysis (reference value: 100%); format: cell-based
[19] = target: T2, Androgen receptor (Homo sapiens); experiment: Induction of AR degradation in human MCF7 cells assessed as AR/actin ratio level at 3 uM after 6 hrs by Western blot analysis (reference value: 100%); format: cell-based
[20] = target: T2, Androgen receptor (Homo sapiens); experiment: Induction of AR degradation in human MCF7 cells assessed as AR/actin ratio level at 4.5 uM after 6 hrs by Western blot analysis (reference value: 100%); format: cell-based
[21] = target: T2, Androgen receptor (Homo sapiens); experiment: Induction of AR degradation in human MCF7 cells assessed as AR/actin ratio level at 6 uM after 6 hrs by Western blot analysis (reference value: 100%); format: cell-based
[22] = target: Aryl hydrocarbon receptor (Homo sapiens) (UniProt P35869); experiment: Induction of AhR degradation in human MCF7 cells assessed as AhR/actin ratio level at 3 uM after 6 hrs by Western blot analysis (reference value: 100%)
[23] = target: Aryl hydrocarbon receptor (Homo sapiens) (UniProt P35869); experiment: Induction of AhR degradation in human MCF7 cells assessed as AhR/actin ratio level at 6 uM after 6 hrs by Western blot analysis (reference value: 100%)
[24] = target: Aryl hydrocarbon receptor (Homo sapiens) (UniProt P35869); experiment: Induction of AhR degradation in human MCF7 cells assessed as AhR/actin ratio level at 4.5 uM after 6 hrs by Western blot analysis (reference value: 100%)
[25] = target: T1, Estrogen receptor (Homo sapiens); experiment: Induction of ERalpha degradation in human MCF7 cells at 0.3 to 3 uM after 6 hrs by Western blot analysis; format: cell-based

CC[C@H](C)[C@H]1NC(=O)[C@@H](NC(=O)[C@H](CCCNC(=N)N)NC(=O)COCCOCCNC(=O)[C@@H](NC(=O)[C@@H]2CCCN2C(=O)[C@H](NC(=O)[C@H](C)NC)C2CCCCC2)C(c2ccccc2)c2ccccc2)CSSC[C@H](C(=O)N[C@H](CCCNC(=N)N)C(=O)N[C@H](CC(C)(C)C)C(=O)N[C@H](CC(C)C)C(=O)N[C@H](CCC(N)=O)C(=O)NCC(=O)NCC(=O)NCC(=O)N[C@H](CCCNC(=N)N)C(=O)N[C@H](CCCNC(=N)N)C(=O)N[C@H](CCCNC(=N)N)C(=O)N[C@H](CCCNC(=N)N)C(=O)N[C@H](CCCNC(=N)N)C(=O)N[C@H](CCCNC(=N)N)C(=O)N[C@@H](CCCNC(=N)N)C(N)=O)NC(=O)[C@@H](CC(C)C)NC1=O
Activity [1]: inactive
Activity [2]: Toxic
Activity [3]: 236%
Activity [4]: 99%
Activity [5]: 96%

CC[C@H](C)[C@H]1NC(=O)[C@@H](NC(=O)[C@H](N)CCCCNC(=O)COCCOCCNC(=O)[C@@H](NC(=O)[C@@H]2CCCN2C(=O)[C@H](NC(=O)[C@H](C)NC)C2CCCCC2)C(c2ccccc2)c2ccccc2)CSSC[C@H](C(=O)N[C@H](CCCNC(=N)N)C(=O)N[C@H](CC(C)(C)C)C(=O)N[C@H](CC(C)C)C(=O)N[C@H](CCC(N)=O)C(=O)NCC(=O)NCC(=O)NCC(=O)N[C@H](CCCNC(=N)N)C(=O)N[C@H](CCCNC(=N)N)C(=O)N[C@H](CCCNC(=N)N)C(=O)N[C@H](CCCNC(=N)N)C(=O)N[C@H](CCCNC(=N)N)C(=O)N[C@H](CCCNC(=N)N)C(=O)N[C@@H](CCCNC(=N)N)C(N)=O)NC(=O)[C@@H](CC(C)C)NC1=O
Activity [6]: inactive
Activity [7]: Active
Activity [8]: 100%
Activity [9]: 92%
Activity [10]: 105%

CC[C@H](C)[C@H]1NC(=O)[C@@H](NC(=O)[C@@H](N)CCCCNC(=O)COCCOCCNC(=O)COCCOCCNC(=O)[C@@H](NC(=O)[C@@H]2CCCN2C(=O)[C@H](NC(=O)[C@H](C)NC)C2CCCCC2)C(c2ccccc2)c2ccccc2)CSSC[C@H](C(=O)N[C@H](CCCNC(=N)N)C(=O)N[C@H](CC(C)(C)C)C(=O)N[C@H](CC(C)C)C(=O)N[C@H](CCC(N)=O)C(=O)NCC(=O)NCC(=O)NCC(=O)N[C@H](CCCNC(=N)N)C(=O)N[C@H](CCCNC(=N)N)C(=O)N[C@H](CCCNC(=N)N)C(=O)N[C@H](CCCNC(=N)N)C(=O)N[C@H](CCCNC(=N)N)C(=O)N[C@H](CCCNC(=N)N)C(=O)N[C@@H](CCCNC(=N)N)C(N)=O)NC(=O)[C@@H](CC(C)C)NC1=O
Activity [11]: Dose-dependent effect
Activity [12]: Dose-dependent effect
Activity [13]: Toxic
Activity [14]: Active
Activity [15]: inactive
Activity [16]: Not Active
Activity [5]: 87%
Activity [17]: 87%
Activity [18]: 77%
Activity [19]: 77%
Activity [20]: 72%
Activity [21]: 57%
Activity [22]: 173%
Activity [23]: 137%
Activity [24]: 178%

CC[C@H](C)[C@H]1NC(=O)[C@@H](NC(=O)[C@@H](N)CCCCNC(=O)[C@@H](NC(=O)[C@@H]2CCCN2C(=O)[C@H](NC(=O)[C@H](C)NC)C2CCCCC2)C(c2ccccc2)c2ccccc2)CSSC[C@H](C(=O)N[C@H](CCCNC(=N)N)C(=O)N[C@H](CC(C)(C)C)C(=O)N[C@H](CC(C)C)C(=O)N[C@H](CCC(N)=O)C(=O)NCC(=O)NCC(=O)NCC(=O)N[C@H](CCCNC(=N)N)C(=O)N[C@H](CCCNC(=N)N)C(=O)N[C@H](CCCNC(=N)N)C(=O)N[C@H](CCCNC(=N)N)C(=O)N[C@H](CCCNC(=N)N)C(=O)N[C@H](CCCNC(=N)N)C(=O)N[C@@H](CCCNC(=N)N)C(N)=O)NC(=O)[C@@H](CC(C)C)NC1=O
Activity [25]: inactive
Activity [5]: 95%
Activity [8]: 109%
Activity [9]: 114%
